Legend:
[1] = biological target: human A2b adenosine receptor (Homo sapiens (Human), UniProt P29275); experiment: A2b radioligand filtration binding assay (tritiated proprietary A2b antagonist, HEK293 membranes); conditions: unstarred values: radioligand binding
Protocol: Measurement of A2b Binding Affinity
The reported affinity of the compounds of the invention for the human A2b adenosine receptor was determined experimentally using a radioligand filtration binding assay. This assay measures the amount of binding of a tritiated proprietary A2b receptor antagonist, in the presence and absence of a compound of the invention, to membranes made from HEK293 cells recombinantly expressing the human A2b adenosine receptor (Perkin Elmer, Cat. No. ES-013-C).
The filter plate was incubated for at least 1 hour at 55° C. and allowed to dry. The bottom of the filter plate was then sealed with backing tape. […] The plates were then incubated for at least 20 minutes, and then the amount of radioactivity remaining in each well was determined using a TopCount® (Perkin Elmer) scintillation counter. After normalization to total and non-specific binding, the percent effect at each compound concentration was calculated. The plot of percent effect versus the log of compound concentration was analyzed electronically using a 4-parameter logistic fit based on the Levenberg-Marquardt algorithm to generate IC50 values.

[2] = biological target: human A2a adenosine receptor (Homo sapiens (Human), UniProt P29274); experiment: A2a receptor affinity radioligand binding assay ([3H] SCH58261, membranes from HEK293 or CHO cells); conditions: unstarred values: radioligand binding
Protocol: The A2a receptor affinity binding assay measured the amount of binding of a tritiated ligand with high affinity for the A2a adenosine receptor to membranes made from HEK293 or CHO cells recombinantly expressing the human A2a adenosine receptor, in the presence of varying concentrations of a compound of the invention.
Measurement of A2a Binding Affinity Using Radioligand Binding
148 μL, (5 μg/mL) membranes (Perkin Elmer, Cat. No. RBHA2aM4001A) and 2 μL compounds of the invention to be tested (test compound) were transferred to individual wells of a 96-well polypropylene assay plate and incubated for 15 to 30 minutes at room temperature. [^3H] SCH58261 ((7-(2-phenylethyl)-5-amino-2-(2-furyl)-pyrazolo-[4,3-e]-1,2,4-triazolo[1,5-c]pyrimidine)) was diluted in assay buffer (50 mM Tris pH 7.4, 10 mM MgCl2, 0.005% Tween20) to a concentration of 4 nM and 50 μL transferred to each well of the assay plate. […] The assay plate was incubated at room temperature for 60 minutes with agitation. […] Filtering was achieved by aspirating the contents of the assay plate for 5 seconds, then washing and aspirating the contents three times with ice-cooled wash buffer (50 mM Tris-HCl pH 7.4, 150 mM NaCl) and allowing the vacuum manifold to dry the plate for 30 seconds. The filter plate was incubated for at least 1 hour at 55° C. and allowed to dry. The bottom of the filter plate was sealed with backing tape. 40 μL. […] The plate was incubated for at least 20 minutes, and then the amount of radioactivity remaining in each well was determined using a TopCown® (Perkin Elmer) scintillation counter. After normalization to total and non-specific binding, the percent effect at each compound concentration was calculated. The plot of percent effect versus the log of compound concentration was analyzed electronically using a 4-parameter logistic fit based on the Levenberg-Marquardt algorithm to generate IC50 values.

human A2b adenosine receptor, sequence (P29275 whole entry): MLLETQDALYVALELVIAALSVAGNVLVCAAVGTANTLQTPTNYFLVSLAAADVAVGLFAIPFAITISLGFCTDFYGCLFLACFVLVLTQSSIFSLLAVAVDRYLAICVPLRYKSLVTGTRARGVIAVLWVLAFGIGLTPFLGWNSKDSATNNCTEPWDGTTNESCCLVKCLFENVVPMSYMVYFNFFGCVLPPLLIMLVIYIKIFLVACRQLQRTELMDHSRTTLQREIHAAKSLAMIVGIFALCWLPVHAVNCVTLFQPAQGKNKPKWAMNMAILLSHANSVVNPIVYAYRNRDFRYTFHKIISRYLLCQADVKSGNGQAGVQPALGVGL
human A2a adenosine receptor, sequence (P29274 whole entry): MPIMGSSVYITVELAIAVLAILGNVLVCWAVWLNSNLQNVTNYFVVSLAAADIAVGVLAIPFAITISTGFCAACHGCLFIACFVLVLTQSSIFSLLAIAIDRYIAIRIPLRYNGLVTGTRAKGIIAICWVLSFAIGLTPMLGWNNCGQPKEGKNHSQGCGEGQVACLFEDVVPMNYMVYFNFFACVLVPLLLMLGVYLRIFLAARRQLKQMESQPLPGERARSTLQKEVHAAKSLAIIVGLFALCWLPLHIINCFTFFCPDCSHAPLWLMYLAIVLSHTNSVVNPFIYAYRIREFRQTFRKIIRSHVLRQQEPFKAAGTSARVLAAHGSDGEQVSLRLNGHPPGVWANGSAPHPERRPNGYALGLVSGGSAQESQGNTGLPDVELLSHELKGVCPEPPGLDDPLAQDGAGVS

Structure (SMILES) | IC50 [1] [nM] | IC50 [2] [nM]
CCNC(=O)C(C)(C)n1cc(N2CCC[C@@H](c3nc4c5cccc(OC)c5nc(N)n4n3)C2)cn1 [Example 36, (R)-2-(4-(3-(5-amino-7-methoxy-[1,2,4]triazolo[1,5-c]quinazolin-2-yl)piperidin-1-yl)-1H-pyrazol-1-yl)-N-ethyl-2-methylpropanamide] | 1.7 | 1.8
COc1cccc2c1nc(N)n1nc([C@@H]3CCCN(c4cnn(C(C)(C)C(=O)NC5CCC5)c4)C3)nc21 [Example 37, (R)-2-(4-(3-(5-amino-7-methoxy-[1,2,4]triazolo[1,5-c]quinazolin-2-yl)piperidin-1-yl)-1H-pyrazol-1-yl)-N-cyclobutyl-2-methylpropanamide] | 10.7 | 1.5
COc1cccc2c1nc(N)n1nc([C@@H]3CCCN(c4cnn(C(C)(C)C(=O)NC(C)C)c4)C3)nc21 [Example 38, (R)-2-(4-(3-(5-amino-7-methoxy-[1,2,4]triazolo[1,5-c]quinazolin-2-yl)piperidin-1-yl)-1H-pyrazol-1-yl)-N-isopropyl-2-methylpropanamide] | 1.4 | 4.1
COc1cccc2c1nc(N)n1nc([C@@H]3CCCN(c4cnn([C@@H]5CCCC[C@]5(C)O)c4)C3)nc21 [Example 42, (1S,2R)-2-(4-((R)-3-(5-amino-7-methoxy-[1,2,4]triazolo[1,5-c]quinazolin-2-yl)piperidin-1-yl)-1H-pyrazol-1-yl)-1-methylcyclohexan-1-ol] | 3.5 | 1.2
COc1cccc2c1nc(N)n1nc([C@@H]3CCCN(c4cnn([C@H]5CCCC[C@]5(C)O)c4)C3)nc21 [Example 43, (1S,2S)-2-(4-((R)-3-(5-amino-7-methoxy-[1,2,4]triazolo[1,5-c]quinazolin-2-yl)piperidin-1-yl)-1H-pyrazol-1-yl)-1-methylcyclohexan-1-ol] | 1.9 | 0.5
COc1cccc2c1nc(N)n1nc([C@@H]3CCCN(c4cnn(CC5(O)CCCCC5)c4)C3)nc21 [Example 44, (R)-1-((4-(3-(5-amino-7-methoxy-[1,2,4]triazolo[1,5-c]quinazolin-2-yl)piperidin-1-yl)-1H-pyrazol-1-yl)methyl)cyclohexan-1-ol] | 132 | 1.2
COc1cccc2c1nc(N)n1nc([C@@H]3CCCN(c4cn(CC(C)(C)O)nc4C(F)(F)F)C3)nc21 [Example 52, (R)-1-(4-(3-(5-amino-7-methoxy-[1,2,4]triazolo[1,5-c]quinazolin-2-yl)piperidin-1-yl)-3-(trifluoromethyl)-1H-pyrazol-1-yl)-2-methylpropan-2-ol] | 350 | 0.4
COc1cccc2c1nc(N)n1nc([C@@H]3CCCN(c4cnn(C(C)(C)CO)c4)C3)nc21 [Example 54, (R)-2-(4-(3-(5-amino-7-methoxy-[1,2,4]triazolo[1,5-c]quinazolin-2-yl)piperidin-1-yl)-1H-pyrazol-1-yl)-2-methylpropan-1-ol] | 16.3 | 0.4
COc1cccc2c1nc(N)n1nc([C@@H]3CCCN(c4cn[nH]c4)C3)nc21 [Example 55] | 4.7 | 1.5
COc1cccc2c1nc(N)n1nc([C@@H]3CCCN(c4nn(CC(C)(C)O)cc4C(F)(F)F)C3)nc21 [Example 62, (R)-1-(3-(3-(5-amino-7-methoxy-[1,2,4]triazolo[1,5-c]quinazolin-2-yl)piperidin-1-yl)-4-(trifluoromethyl)-1H-pyrazol-1-yl)-2-methylpropan-2-ol] | 631 | 0.3
COc1cccc2c1nc(N)n1nc([C@@H]3CCCN(c4ncn(CC(C)(C)O)n4)C3)nc21 [Example 64, (R)-1-(3-(3-(5-amino-7-methoxy[1,2,4]triazolo[1,5-c]quinazolin-2-yl)piperidin-1-yl)-1H-1,2,4-triazol-1-yl)-2-methylpropan-2-ol] | 374 | 0.1
COc1cccc2c1nc(N)n1nc([C@@H]3CCCN(c4ccn(C)n4)C3)nc21 [Example 66, (R)-7-methoxy-2-(1-(1-methyl-1H-pyrazol-3-yl)piperidin-3-yl)-[1,2,4]triazolo[1,5-c]quinazolin-5-amine] | 144 | 0.7

Continued, values first:

IC50 [1] [nM] | IC50 [2] [nM] | Structure (SMILES)
41.9 | 0.7 | COc1cccc2c1nc(N)n1nc([C@@H]3CCCN(c4cnn([C@H]5C[C@@](C)(O)C5)c4)C3)nc21 [Example 35, (R)-3-(4-(3-(5-amino-7-methoxy-[1,2,4]triazolo[1,5-c]quinazolin-2-yl)piperidin-1-yl)-1H-pyrazol-1-yl)-1-methylcyclobutan-1-ol]
350 | 2.6 | COc1cccc2c1nc(N)n1nc([C@@H]3CCCN(c4cnn([C@@H]5CCNC5)c4)C3)nc21 [Example 45, 7-methoxy-2-((R)-1-(1-((R)-pyrrolidin-3-yl)-1H-pyrazol-4-yl)piperidin-3-yl)-[1,2,4]triazolo[1,5-c]quinazolin-5-amine]
404 | 0.4 | COc1cccc2c1nc(N)n1nc([C@@H]3CCCN(c4cn(C5CCOCC5)nc4C)C3)nc21 [Example 46, (R)-7-methoxy-2-(1-(3-methyl-1-(tetrahydro-2H-pyran-4-yl)-1H-pyrazol-4-yl)piperidin-3-yl)-[1,2,4]triazolo[1,5-c]quinazolin-5-amine]
223 | 0.1 | COc1cccc2c1nc(N)n1nc([C@@H]3CCCN(c4cnn(C5CCOCC5)c4C)C3)nc21 [Example 47, (R)-7-methoxy-2-(1-(5-methyl-1-(tetrahydro-2H-pyran-4-yl)-1H-pyrazol-4-yl)piperidin-3-yl)-[1,2,4]triazolo[1,5-c]quinazolin-5-amine]
65.5 | 0.6 | COc1cccc2c1nc(N)n1nc([C@@H]3CCCN(c4cn(C5CCOCC5)nc4C(F)F)C3)nc21 [Example 48]
36 | 0.2 | COc1cccc2c1nc(N)n1nc([C@@H]3CCCN(c4cnn(C5CCOCC5)c4C(F)F)C3)nc21 [Example 49, (R)-2-(1-(5-(difluoromethyl)-1-(tetrahydro-2H-pyran-4-yl)-1H-pyrazol-4-yl)piperidin-3-yl)-7-methoxy-[1,2,4]triazolo[1,5-e]quinazolin-5-amine]
160 | 0.9 | COc1cccc2c1nc(N)n1nc([C@@H]3CCCN(c4cnn([C@H]5CCN(C)C5)c4)C3)nc21 [Example 50, 7-methoxy-2-((R)-1-(1-((S)-1-methylpyrrolidin-3-yl)-1H-pyrazol-4-yl)piperidin-3-yl)-[1,2,4]triazolo[1,5-c]quinazolin-5-amine]
85.9 | 0.1 | COc1cccc2c1nc(N)n1nc([C@@H]3CCCN(c4cn(C)nc4C(F)(F)F)C3)nc21 [Example 51, (R)-7-methoxy-2-(1-(1-methyl-3-(trifluoromethyl)-1H-pyrazol-4-yl)piperidin-3-yl)-[1,2,4]triazolo[1,5-c]quinazolin-5-amine]
151 | 0.7 | COc1cccc2c1nc(N)n1nc([C@@H]3CCCN(c4cn(CC(C)(C)O)nc4C(F)F)C3)nc21 [Example 53, (R)-1-(4-(3-(5-amino-7-methoxy-[1,2,4]triazolo[1,5-c]quinazolin-2-yl)piperidin-1-yl)-3-(difluoromethyl)-1H-pyrazol-1-yl)-2-methylpropan-2-ol]
175 | 0.9 | COc1cccc2c1nc(N)n1nc([C@@H]3CCCN(c4cnn(C5CCCC5OC)c4)C3)nc21 (stereo partly drawn) [Example 56, 7-methoxy-2-((3R)-1-(1-(2-methoxycyclopentyl)-1H-pyrazol-4-yl)piperidin-3-yl)-[1,2,4]triazolo[1,5-c]quinazolin-5-amine]
64.9 | 0.2 | COc1cccc2c1nc(N)n1nc([C@@H]3CCCN(c4cnn(C5CCCC5O)c4)C3)nc21 (some centres unmarked) [Example 58A]
2 | 1 | COc1cccc2c1nc(N)n1nc([C@@H]3CCCN(c4cn(C)nn4)C3)nc21 [Example 67, (R)-7-methoxy-2-(1-(1-methyl-1H-1,2,3-triazol-4-yl)piperidin-3-yl)-[1,2,4]triazolo[1,5-c]quinazolin-5-amine]
340 | 0.3 | COc1cccc2c1nc(N)n1nc([C@@H]3CCCN(c4ncn(C5CCOCC5)n4)C3)nc21 [Example 68, (R)-7-methoxy-2-(1-(1-(tetrahydro-2H-pyran-4-yl)-1H-1,2,4-triazol-3-yl)piperidin-3-yl)-[1,2,4]triazolo[1,5-c]quinazolin-5-amine]

Reference: patent publication US12263171B2, “7-, 8-, and 10-substituted amino triazolo quinazoline derivatives as adenosine receptor antagonists, pharmaceutical compositions and their use” (Merck Sharp & Dohme LLC, priority 2018, dated 2025)
